# Measurements reported in US9783510B2, “Small molecule mediated transcriptional induction of E-cadherin” (Vanderbilt University, priority 2014, dated 2017).
# Test system: E-cadherin expression in SW620 cells
# Test: E-cadherin expression, in-cell Western (ICW), SW620 cells
# Assay type: cell-based
# Conditions: for fold induction at 10 µM / EC50: Homo sapiens; for fold induction at 10 µM: SW-620, 24 h; for EC50: SW-620, inducement of E-cadherin expression in SW620 cells
# Method: SW620 and H520 cells (5×10^4/100 μL) were seeded in a 96-well plate prior to treatment. Cells were treated with 10 μM concentration of synthesized compound in quadruplicate for 24 hours in RPMI 1640 supplemented medium and 100 μg/mL penicillin-streptomycin. The cells were then fixed with 100% methanol for 20 minutes at 4° C. The wells were then washed 2 times with PBS, permeabilized in 2% bovine serum albumin (BSA) and 0.2% TritonX-100 in PBS for 30 minutes at room temperature with gentle agitation, and blocked in LI-COR blocking buffer for 30 minutes at room temperature with gentle agitation. The cells were then incubated with the following primary antibodies: anti-E-Cadherin (1:500) and anti-α-Tubulin (1:1000) diluted in blocking buffer (1:1 dilution in PBS) for 2 hours at room temperature with gentle agitation. The cells were washed 4 times in PBS-T for 5 minutes each, and then incubated with the following secondary antibodies conjugated to a fluorescent entity: IRDye 800-conjugated goat anti-rabbit IgG (1:1000) and IRDye-700-conjugated goat anti-mouse IgG (1:2000) in blocking buffer (1:1 dilution in PBS) with gentle agitation for 1 h at room temperature. The cells were washed 4 times in PBS-T for 5 minutes each followed by a single wash with PBS. All liquid was removed from the wells and the plates were visualized and analyzed on the Odyssey IR imaging system (LI-COR Biosciences).
# The assay was further optimized in the following manner. The cells were washed 2 times with PBS, fixed in 100% methanol at room temperature for 15 minutes, and again washed 2 times with PBS. The cells were then incubated with the following primary antibodies: anti-E-Cadherin (1:200) and anti-α-Tubulin (1:2000) diluted in ice cold 2% bovine serum albumin (BSA) and 0.2% TritonX-100 in PBS for 1 hour at room temperature with gentle agitation. The cells were washed 2 times in PBS and then incubated with the following secondary antibodies conjugated to a fluorescent entity: Licor 800-conjugated goat anti-rabbit IgG (1:2000) and IRDye-700-conjugated goat anti-mouse IgG (1:2000) in ice cold 2% BSA and 0.2% TritonX-100 in PBS with gentle agitation for 45 minutes at room temperature. The wells were washed 2 times in PBS, dried, and analyzed as previously mentioned.
# N-Acetamidoalkyl-5-arylisoxazole-3-carboxamide analogs were synthesized as described above. Changes in expression level of E-cadherin in response to 10 μM compound in SW620 cells was determined in a cell-based functional assay as described above, and the data are shown in Table III. The compound number corresponds to the compound numbers used in Table II.
# EC50 of inducement of E-cadherin expression in SW620 cells was determined in a cell-based functional assay as described above, and the data are shown in Table V. The compound number corresponds to the compound numbers used in Table IV.
# [1] = change in expression level of E-cadherin in response to 10 μM compound, 24 hours, SW620 cells
EC50,SMILES,fold induction at 10 µM [1],fold change SW620 ICW [1]
,"O=C(CCCC[C@@H]1SC[C@@H]2NC(=O)N[C@@H]21)NCCCNC(=O)c1cc(-c2ccccc2)on1 (stereo in doubt) [Compound 19, N-(3-(5-((3aS,4S,6aR)-2-oxohexahydro-1H-thieno[3,4-d]imidazol-4-yl)pentanamido)propyl)-5-phenylisoxazole-3-carboxamide]",1.25,
7.1 µM,"O=C(NCCNC(=O)c1cc(-c2ccccc2)on1)c1cccnc1 [Compound 3, N-(2-(nicotinamido)ethyl)-5-phenylisoxazole-3-carboxamide]",3.05,
,"N[C@@H](Cc1c[nH]c2ccccc12)C(=O)NCCNC(=O)c1cc(-c2ccccc2)on1 [Compound 6, (S)—N-(2-(2-amino-3-(1H-indol-3-yl)propanamido)ethyl)-5-phenylisoxazole-3-carboxamide]",0.92,
,"O=C(Cc1cccc(O)c1)NCCNC(=O)c1cc(-c2ccccc2)on1 [Compound 7, N-(2-(2-(3-hydroxyphenyl)acetamido)ethyl)-5-phenylisoxazole-3-carboxamide]",2.92,
,"O=C(NCCNC(=O)c1cc(-c2ccccc2)on1)c1cccc(O)c1 [Compound 8, N-(2-(3-hydroxybenzamido)ethyl)-5-phenylisoxazole-3-carboxamide]",2.44,
,"O=C(NCCNC(=O)c1cc(-c2ccccc2)on1)c1ccc(O)c(O)c1 [Compound 9, N-(2-(3,4-dihydroxybenzamido)ethyl)-5-phenylisoxazole-3-carboxamide]",1.89,
,"O=C(NCCNC(=O)c1cc(-c2ccccc2)on1)c1cc(O)cc(Br)c1 [Compound 10, N-(2-(3-bromo-5-hydroxybenzamido)ethyl)-5-phenylisoxazole-3-carboxamide]",2.35,
,"Cc1scnc1C(=O)NCCNC(=O)c1cc(-c2ccccc2)on1 [Compound 11, N-(2-(5-methylthiazole-4-carboxamido)ethyl)-5-phenylisoxazole-3-carboxamide]",2.08,
,"O=C(NCCNC(=O)c1cnccc1O)c1cc(-c2ccccc2)on1 [Compound 12, N-(2-(4-hydroxynicotinamido)ethyl)-5-phenylisoxazole-3-carboxamide]",3.25,
,"Nc1ccc(C(=O)NCCCNC(=O)c2cc(-c3ccccc3)on2)cn1 [Compound 14, N-(3-(6-aminonicotinamido)propyl)-5-phenylisoxazole-3-carboxamide]",,0.70 fold
,"Nc1cccc(C(=O)NCCCNC(=O)c2cc(-c3ccccc3)on2)c1 [Compound 15, N-(3-(3-aminobenzamido)propyl)-5-phenylisoxazole-3-carboxamide]",3.94,
,"Nc1ccc(C(=O)NCCCNC(=O)c2cc(-c3ccccc3)on2)cc1O [Compound 16, N-(3-(4-amino-3-hydroxybenzamido)propyl)-5-phenylisoxazole-3-carboxamide]",3.72,
,"O=C(CCCC[C@@H]1SC[C@@H]2NC(=O)N[C@@H]21)Nc1ccc(C(=O)NCCCNC(=O)c2cc(-c3ccccc3)on2)cc1 [Compound 17, N-(3-(4-(5-((3aS,4S,6aR)-2-oxohexahydro-1H-thieno[3,4-d]imidazol-4-yl)pentanamido)benzamido)propyl)-5-phenylisoxazole-3-carboxamide]",1.04,
,"O=C(CCCC[C@@H]1SC[C@@H]2NC(=O)N[C@@H]21)Nc1cccc(C(=O)NCCCNC(=O)c2cc(-c3ccccc3)on2)c1 [Compound 18, N-(3-(3-(5-((3aS,4S,6aR)-2-oxohexahydro-1H-thieno[3,4-d]imidazol-4-yl)pentanamido)benzamido)propyl)-5-phenylisoxazole-3-carboxamide]",1.05,
,"N[C@@H](Cc1ccccc1)C(=O)NCCNC(=O)c1cc(-c2ccccc2)on1 [Compound 23, (S)—N-(2-(2-amino-3-phenylpropanamido)ethyl)-5-phenylisoxazole-3-carboxamide]",0.84,
,"Cn1ccc(C(=O)NCCCNC(=O)c2cc(-c3ccccc3)on2)n1 [Compound 28, N-(3-(1-methyl-1H-pyrazole-3-carboxamido)propyl)-5-phenylisoxazole-3-carboxamide]",3.42,
,"O=C(NCCCNC(=O)c1cc(-c2ccccc2)on1)c1cocn1 [Compound 29, N-(3-(oxazole-4-carboxamido)propyl)-5-phenylisoxazole-3-carboxamide]",3.35,

EC50,SMILES,fold induction at 10 µM [1],fold change SW620 ICW [1]
,"O=C(NCCCNC(=O)c1cnccc1O)c1cc(-c2ccccc2)on1 [Compound 30, N-(3-(4-hydroxynicotinamido)propyl)-5-phenylisoxazole-3-carboxamide]",2.69,
,"O=C(NCCCNC(=O)c1cc(-c2ccccc2)on1)c1ccncc1 [Compound 31, N-(3-(isonicotinamido)propyl)-5-phenylisoxazole-3-carboxamide]",3.51,
,"N[C@@H](Cc1c[nH]c2ccccc12)C(=O)NCCCNC(=O)c1cc(-c2ccccc2)on1 [Compound 32, (S)—N-(3-(2-amino-3-(1H-indol-3-yl)propanamido)propyl)-5-phenylisoxazole-3-carboxamide]",2.7,
,"O=C(NCCCNC(=O)c1cc(-c2ccccc2)on1)c1cscn1 [Compound 33, 5-phenyl-N-(3-(thiazole-4-carboxamido)propyl)isoxazole-3-carboxamide]",3.7,
,"O=C(NCCCNC(=O)c1ncco1)c1cc(-c2ccccc2)on1 [Compound 34, N-(3-(oxazole-2-carboxamido)propyl)-5-phenylisoxazole-3-carboxamide]",2.77,
,"O=C(NCCCNC(=O)c1nccs1)c1cc(-c2ccccc2)on1 [Compound 35, 5-phenyl-N-(3-(thiazole-2-carboxamido)propyl)isoxazole-3-carboxamide]",2.61,
,"O=C(NCCCNC(=O)c1cc(-c2ccccc2)on1)c1ccc(O)c(O)c1 [Compound 36, N-(3-(3,4-dihydroxybenzamido)propyl)-5-phenylisoxazole-3-carboxamide]",2.69,
,"O=C(NCCCNC(=O)c1cc(-c2cccs2)on1)c1ccnc(O)c1 [Compound 37, N-(3-(2-hydroxyisonicotinamido)propyl)-5-(thiophen-2-yl)isoxazole-3-carboxamide]",1.83,
,"Cc1ccc(C(=O)NCCCNC(=O)c2cc(-c3ccccc3)on2)o1 [Compound 38, N-(3-(5-methylfuran-2-carboxamido)propyl)-5-phenylisoxazole-3-carboxamide]",3.37,
5.02 µM,"O=C(NCCCNC(=O)c1cc(-c2cccs2)on1)c1cccnc1 [Compound 39, N-(3-(nicotinamido)propyl)-5-(thiophen-2-yl)isoxazole-3-carboxamide]",4.56,
,"O=C(NCCCNC(=O)c1cc(-c2cccs2)on1)c1cc(Cl)ccn1 [Compound 40, N-(3-(4-chloropicolinamido)propyl)-5-(thiophen-2-yl)isoxazole-3-carboxamide]",1.95,
,"O=C(NCCCNC(=O)c1cc(-c2cccs2)on1)c1ccc(O)cn1 [Compound 41, N-(3-(5-hydroxypicolinamido)propyl)-5-(thiophen-2-yl)isoxazole-3-carboxamide]",2.77,
,"O=C(NCCCNC(=O)c1cncnc1O)c1cc(-c2cccs2)on1 [Compound 42, N-(3-(4-hydroxypyrimidine-5-carboxamido)propyl)-5-(thiophen-2-yl)isoxazole-3-carboxamide]",0.95,
,"COc1ccc(C(=O)NCCCNC(=O)c2cc(-c3cccs3)on2)c(OC)n1 [Compound 43, N-(3-(2,6-dimethoxynicotinamido)propyl)-5-(thiophen-2-yl)isoxazole-3-carboxamide]",1.45,
,"O=C(NCCCNC(=O)c1ncccc1F)c1cc(-c2cccs2)on1 [Compound 44, N-(3-(3-fluoropicolinamido)propyl)-5-(thiophen-2-yl)isoxazole-3-carboxamide]",3.36,
,"O=C(NCCCNC(=O)c1cccc(Br)n1)c1cc(-c2cccs2)on1 [Compound 45, N-(3-(6-bromopicolinamido)propyl)-5-(thiophen-2-yl)isoxazole-3-carboxamide]",3.35,
